{
  "source": "ChEMBL document CHEMBL3877299",
  "about": "“Imidazopyridine-fused [1,3]-diazepinones part 2: Structure-activity relationships and antiproliferative activity against melanoma cells” (Eur J Med Chem, 2017)",
  "format_in_all_cases": "functional",
  "key": {"[1]": {"assay": "Cytotoxicity against human MDA-MB-435 cells assessed as growth inhibition after 48 hrs by MTT assay", "conditions": "MDA-MB-435, 48 h"}, "[2]": {"assay": "Growth inhibition of human CCRF-CEM cells assessed as cell growth at 10 uM incubated for 48 hrs by sulforhodamine B assay relative to control", "conditions": "read-out: Activity"}, "[3]": {"assay": "Growth inhibition of human HL-60(TB) cells assessed as cell growth at 10 uM incubated for 48 hrs by sulforhodamine B assay relative to control", "conditions": "HL-60, 48 h, read-out: Activity"}, "[4]": {"assay": "Growth inhibition of human MOLT4 cells assessed as cell growth at 10 uM incubated for 48 hrs by sulforhodamine B assay relative to control", "conditions": "MOLT-4, 48 h, read-out: Activity"}, "[5]": {"assay": "Growth inhibition of human RPMI8226 cells assessed as cell growth at 10 uM incubated for 48 hrs by sulforhodamine B assay relative to control", "conditions": "RPMI-8226, 48 h, read-out: Activity"}, "[6]": {"assay": "Growth inhibition of human EKVX cells assessed as cell growth at 10 uM incubated for 48 hrs by sulforhodamine B assay relative to control", "conditions": "read-out: Activity"}, "[7]": {"assay": "Growth inhibition of human NCI-H226 cells assessed as cell growth at 10 uM incubated for 48 hrs by sulforhodamine B assay relative to control", "conditions": "NCI-H226, 48 h, read-out: Activity"}, "[8]": {"assay": "Growth inhibition of human NCI-H23 cells assessed as cell growth at 10 uM incubated for 48 hrs by sulforhodamine B assay relative to control", "conditions": "NCI-H23, 48 h, read-out: Activity"}, "[9]": {"assay": "Growth inhibition of human NCI-H322M cells assessed as cell growth at 10 uM incubated for 48 hrs by sulforhodamine B assay relative to control", "conditions": "read-out: Activity"}, "[10]": {"assay": "Growth inhibition of human NCI-H460 cells assessed as cell growth at 10 uM incubated for 48 hrs by sulforhodamine B assay relative to control", "conditions": "NCI-H460, 48 h, read-out: Activity"}, "[11]": {"assay": "Growth inhibition of human HCC2998 cells assessed as cell growth at 10 uM incubated for 48 hrs by sulforhodamine B assay relative to control", "conditions": "HCC 2998, 48 h, read-out: Activity"}, "[12]": {"assay": "Growth inhibition of human HCT116 cells assessed as cell growth at 10 uM incubated for 48 hrs by sulforhodamine B assay relative to control", "conditions": "HCT-116, 48 h, read-out: Activity"}, "[13]": {"assay": "Growth inhibition of human HT-29 cells assessed as cell growth at 10 uM incubated for 48 hrs by sulforhodamine B assay relative to control", "conditions": "HT-29, 48 h, read-out: Activity"}, "[14]": {"assay": "Growth inhibition of human KM12 cells assessed as cell growth at 10 uM incubated for 48 hrs by sulforhodamine B assay relative to control", "conditions": "KM12, 48 h, read-out: Activity"}, "[15]": {"assay": "Growth inhibition of human SW620 cells assessed as cell growth at 10 uM incubated for 48 hrs by sulforhodamine B assay relative to control", "conditions": "SW-620, 48 h, read-out: Activity"}, "[16]": {"assay": "Growth inhibition of human SF295 cells assessed as cell growth at 10 uM incubated for 48 hrs by sulforhodamine B assay relative to control", "conditions": "SF-295, 48 h, read-out: Activity"}, "[17]": {"assay": "Growth inhibition of human U251 cells assessed as cell growth at 10 uM incubated for 48 hrs by sulforhodamine B assay relative to control", "conditions": "U-251, 48 h, read-out: Activity"}, "[18]": {"assay": "Growth inhibition of human MALME-3M cells assessed as cell growth at 10 uM incubated for 48 hrs by sulforhodamine B assay relative to control", "conditions": "read-out: Activity"}, "[19]": {"assay": "Growth inhibition of human SK-MEL-2 cells assessed as cell growth at 10 uM incubated for 48 hrs by sulforhodamine B assay relative to control", "conditions": "SK-MEL-2, 48 h, read-out: Activity"}, "[20]": {"assay": "Growth inhibition of human SK-MEL-28 cells assessed as cell growth at 10 uM incubated for 48 hrs by sulforhodamine B assay relative to control", "conditions": "SK-MEL-28, 48 h, read-out: Activity"}, "[21]": {"assay": "Growth inhibition of human SK-MEL-5 cells assessed as cell growth at 10 uM incubated for 48 hrs by sulforhodamine B assay relative to control", "conditions": "SK-MEL-5, 48 h, read-out: Activity"}, "[22]": {"assay": "Growth inhibition of human IGROV1 cells assessed as cell growth at 10 uM incubated for 48 hrs by sulforhodamine B assay relative to control", "conditions": "IGROV-1, 48 h, read-out: Activity"}, "[23]": {"assay": "Growth inhibition of human OVCAR3 cells assessed as cell growth at 10 uM incubated for 48 hrs by sulforhodamine B assay relative to control", "conditions": "OVCAR-3, 48 h, read-out: Activity"}, "[24]": {"assay": "Growth inhibition of human OVCAR5 cells assessed as cell growth at 10 uM incubated for 48 hrs by sulforhodamine B assay relative to control", "conditions": "OVCAR-5, 48 h, read-out: Activity"}, "[25]": {"assay": "Growth inhibition of human OVCAR8 cells assessed as cell growth at 10 uM incubated for 48 hrs by sulforhodamine B assay relative to control", "conditions": "OVCAR-8, 48 h, read-out: Activity"}, "[26]": {"assay": "Growth inhibition of human NCI/ADR-RES cells assessed as cell growth at 10 uM incubated for 48 hrs by sulforhodamine B assay relative to control", "conditions": "read-out: Activity"}, "[27]": {"assay": "Growth inhibition of human 786-0 cells assessed as cell growth at 10 uM incubated for 48 hrs by sulforhodamine B assay relative to control", "conditions": "786-0, 48 h, read-out: Activity"}, "[28]": {"assay": "Growth inhibition of human A498 cells assessed as cell growth at 10 uM incubated for 48 hrs by sulforhodamine B assay relative to control", "conditions": "A498, 48 h, read-out: Activity"}, "[29]": {"assay": "Growth inhibition of human Caki1 cells assessed as cell growth at 10 uM incubated for 48 hrs by sulforhodamine B assay relative to control", "conditions": "CAKI-1, 48 h, read-out: Activity"}, "[30]": {"assay": "Growth inhibition of human SN12C cells assessed as cell growth at 10 uM incubated for 48 hrs by sulforhodamine B assay relative to control", "conditions": "read-out: Activity"}, "[31]": {"assay": "Growth inhibition of human TK10 cells assessed as cell growth at 10 uM incubated for 48 hrs by sulforhodamine B assay relative to control", "conditions": "TK-10, 48 h, read-out: Activity"}, "[32]": {"assay": "Growth inhibition of human UO31 cells assessed as cell growth at 10 uM incubated for 48 hrs by sulforhodamine B assay relative to control", "conditions": "UO-31, 48 h, read-out: Activity"}, "[33]": {"assay": "Growth inhibition of human MDA-MB-231 cells assessed as cell growth at 10 uM incubated for 48 hrs by sulforhodamine B assay relative to control", "conditions": "MDA-MB-231, 48 h, read-out: Activity"}, "[34]": {"assay": "Growth inhibition of human Hs 578T cells assessed as cell growth at 10 uM incubated for 48 hrs by sulforhodamine B assay relative to control", "conditions": "read-out: Activity"}, "[35]": {"assay": "Growth inhibition of human T47D cells assessed as cell growth at 10 uM incubated for 48 hrs by sulforhodamine B assay relative to control", "conditions": "read-out: Activity"}, "[36]": {"assay": "Growth inhibition of human MDA-MB-468 cells assessed as cell growth at 10 uM incubated for 48 hrs by sulforhodamine B assay relative to control", "conditions": "MDA-MB-468, 48 h, read-out: Activity"}},
  "data": [
    {"smiles": "C[C@@H]1NC(c2ccc3ccccc3c2)=Nc2nc3ccccn3c2C1=O", "values": [
      {"measurement": "GI50", "setting": "[1]", "value": 1.4, "unit": "µM"},
      {"measurement": "growth at 10 µM", "setting": "[2]", "value": 52.9, "unit": "%"},
      {"measurement": "growth at 10 µM", "setting": "[3]", "value": -6.75, "unit": "%"},
      {"measurement": "growth at 10 µM", "setting": "[4]", "value": 34.5, "unit": "%"},
      {"measurement": "growth at 10 µM", "setting": "[5]", "value": 43.8, "unit": "%"},
      {"measurement": "growth at 10 µM", "setting": "[6]", "value": 75.6, "unit": "%"},
      {"measurement": "growth at 10 µM", "setting": "[7]", "value": 64.5, "unit": "%"},
      {"measurement": "growth at 10 µM", "setting": "[8]", "value": 46.1, "unit": "%"},
      {"measurement": "growth at 10 µM", "setting": "[9]", "value": 73.2, "unit": "%"},
      {"measurement": "growth at 10 µM", "setting": "[10]", "value": 15.2, "unit": "%"},
      {"measurement": "growth at 10 µM", "setting": "[11]", "value": 77, "unit": "%"},
      {"measurement": "growth at 10 µM", "setting": "[12]", "value": 18.3, "unit": "%"},
      {"measurement": "growth at 10 µM", "setting": "[13]", "value": 5.93, "unit": "%"},
      {"measurement": "growth at 10 µM", "setting": "[14]", "value": 30.3, "unit": "%"},
      {"measurement": "growth at 10 µM", "setting": "[15]", "value": 26.3, "unit": "%"},
      {"measurement": "growth at 10 µM", "setting": "[16]", "value": 14.9, "unit": "%"},
      {"measurement": "growth at 10 µM", "setting": "[17]", "value": 32.5, "unit": "%"},
      {"measurement": "growth at 10 µM", "setting": "[18]", "value": 42.3, "unit": "%"},
      {"measurement": "growth at 10 µM", "setting": "[19]", "value": 36.3, "unit": "%"},
      {"measurement": "growth at 10 µM", "setting": "[20]", "value": 59.9, "unit": "%"},
      {"measurement": "growth at 10 µM", "setting": "[21]", "value": 35.3, "unit": "%"},
      {"measurement": "growth at 10 µM", "setting": "[22]", "value": 32.1, "unit": "%"},
      {"measurement": "growth at 10 µM", "setting": "[23]", "value": 16.9, "unit": "%"},
      {"measurement": "growth at 10 µM", "setting": "[24]", "value": 90.6, "unit": "%"},
      {"measurement": "growth at 10 µM", "setting": "[25]", "value": 54.4, "unit": "%"},
      {"measurement": "growth at 10 µM", "setting": "[26]", "value": 44.5, "unit": "%"},
      {"measurement": "growth at 10 µM", "setting": "[27]", "value": 69.3, "unit": "%"},
      {"measurement": "growth at 10 µM", "setting": "[28]", "value": 47.2, "unit": "%"},
      {"measurement": "growth at 10 µM", "setting": "[29]", "value": 38.5, "unit": "%"},
      {"measurement": "growth at 10 µM", "setting": "[30]", "value": 60.1, "unit": "%"},
      {"measurement": "growth at 10 µM", "setting": "[31]", "value": 64.4, "unit": "%"},
      {"measurement": "growth at 10 µM", "setting": "[32]", "value": 55.6, "unit": "%"},
      {"measurement": "growth at 10 µM", "setting": "[33]", "value": 52.5, "unit": "%"},
      {"measurement": "growth at 10 µM", "setting": "[34]", "value": 29.3, "unit": "%"},
      {"measurement": "growth at 10 µM", "setting": "[35]", "value": 41.7, "unit": "%"},
      {"measurement": "growth at 10 µM", "setting": "[36]", "value": 50.5, "unit": "%"}
    ]}
  ]
}
